Here are results for seven molecules from US20240115629A1, “ORAL COMPOSITION” (BLIS TECHNOLOGIES LIMITED, priority 2021, published 2024).

The assay concerns BLIS M18 and K12. Kind of assay: Comparison of foaming agents: inhibition on agar plates. It is filed as cell-based, Streptococcus salivarius. The following applies: 10 μL spotted on CABK12 and BaCa agar plates, 37° C. 5% CO2, 24 hrs. How it is done: Samples were prepared by • 1. mixing 1.1 g of BLIS M18 with 9.9 g of phosphate buffered saline (PBS) for 5 min and diluting by 1 in 10 with PBS • 2. adding to CABK12 and BaCa agar plates • 3. spotting 10 μL of foaming agent to plates and incubating at 37° C. 5% CO2 for 24 hrs, • 4. determining inhibition

Turning to Coco Glucoside, the “Inhibitory to BLIS M18 and K12” value is “Yes”.

As to `CCCCCCCCCCO[C@@H]1O[C@H](CO)[C@@H](O)[C@H](O)[C@H]1O` [Decyl Glucoside], the “Inhibitory to BLIS M18 and K12” value is “Yes”.

As for `CCCCCCCC/C=C\CCCCCCCC(=O)OCCOCC(OCCO)C1OCC(OCCO)C1OCCO` (stereo not shown) [Polysorbate 80], the “Inhibitory to BLIS M18 and K12” value is reported as “No”.

`CCCCCCCCO[C@@H]1O[C@H](CO)[C@@H](O)[C@H](O)[C@H]1O` [Caprylyl glucoside]: the “Inhibitory to BLIS M18 and K12” value is recorded as “Yes”.

Regarding Lauryl glucoside, the “Inhibitory to BLIS M18 and K12” value was “Yes”.

For the molecule `CCCCCCCCCCCCOS(=O)(=O)[O-].[Na+]` [Sodium Lauryl Sulphate], the “Inhibitory to BLIS M18 and K12” value is “Yes”.

Sodium Cocyl Isethionate: the “Inhibitory to BLIS M18 and K12” value is listed as “Yes”.
